Common to all, as to format: functional, cell-based
The subject of one assay is KB. Put plainly: Cytotoxicity against drug-sensitive human KB cells.
Assay [1] is described as follows: Cytotoxicity against vincristine-resistant human KB/VJ300 cells.
A further assay relates to Jurkat. In words: Cytotoxicity against human Jurkat cells.

≈ marks a conversion by molar mass, not a printed value.

In the case of `O=C1C=CC=C2C(=O)c3c4c(ccc3=C2N1)=CC=N4` [MONOMARGINE], the results for the IC50 (with KB; in assay [1]; in the assay on Jurkat) were 4.7 mg/L (≈ 18.9 µM), 3 mg/L (≈ 12.1 µM) and 0.7 mg/L (≈ 2.82 µM), respectively.
Regarding `COc1cc2c(c3c1=CC=N3)C(=O)C1=CC=CC(=O)NC=21` [MONOMARGININE], the IC50 came out at 4 mg/L (≈ 14.4 µM) in the assay with KB, 2.6 mg/L (≈ 9.34 µM) in assay [1] and 0.4 mg/L (≈ 1.44 µM) with Jurkat.
For the compound `CC(C)=C1CC[C@H]([C@H]2CC[C@@]3(C)[C@@H]4CC[C@H]5C(C)(C)[C@@H](O)C(=O)C[C@@]56C[C@@]46CC[C@]23C)[C@H](O)C1` [MONOCARPINE], the 50% inhibitory concentration (IC50) with KB is greater than 5 mg/L.

The record behind these values is ChEMBL document CHEMBL1157392, “A cycloartane incorporating a fused tetrahydrofuran ring and a cytotoxic lactam from Monocarpia marginalis” (J Nat Prod, 2008).
